Assays:
human FPR2 = biological target: T1, human FPR2 (Homo sapiens, UniProt P25090); assay: FPR2 cyclic adenosine monophosphate (cAMP) assay; assay type: cell-based; settings: CHO cells overexpressing human FPR2; forskolin 5 μM; inhibition of cAMP production; HTRF; read-out: hFPR2 cAMP2 EC50
T1 sequence (P25090 1-351): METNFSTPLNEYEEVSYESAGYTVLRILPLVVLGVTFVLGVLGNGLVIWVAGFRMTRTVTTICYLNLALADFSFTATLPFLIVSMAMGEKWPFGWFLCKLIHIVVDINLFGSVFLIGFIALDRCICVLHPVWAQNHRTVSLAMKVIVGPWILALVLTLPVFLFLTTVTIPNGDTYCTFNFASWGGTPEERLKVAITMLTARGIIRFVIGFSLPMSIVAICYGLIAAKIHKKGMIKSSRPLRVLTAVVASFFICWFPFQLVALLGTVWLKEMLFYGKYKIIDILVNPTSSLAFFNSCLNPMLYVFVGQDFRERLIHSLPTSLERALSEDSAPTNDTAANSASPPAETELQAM
Description: (§1) N-formyl peptide receptors (FPRs) are a family of chemo attractant receptors that facilitate leukocyte response during inflammation. FPRs belong to the seven-transmembrane G protein-coupled receptor superfamily and are linked to inhibitory G-proteins (Gi). Three family members (FPR1, FPR2 and FPR3) have been identified in humans and are predominantly found in myeloid cells with varied distribution and have also been reported in multiple organs and tissues. After agonist binding, the FPRs activate a multitude of physiological pathways, such as intra cellular signaling transduction, Ca^2+ mobilization and transcription. The family interacts with a diverse set of ligands that includes proteins, polypeptides and fatty acid metabolites which activate both pro-inflammatory and pro-resolution downstream responses. FPR2 and FPR1 Cyclic Adenosine Monophosphate (cAMP) Assays were used to measure the in vitro activity of the compounds disclosed in this application.
(§2) FPR2 and FPR1 Cyclic Adenosine Monophosphate (cAMP) Assays. A mixture of forskolin (5 μM final for FPR2 or 10 μM final for FPR1) and IBMX (200 μM final) were added to 384-well Proxiplates (Perkin-Elmer) pre-dotted with test compounds in DMSO (1% final) at final concentrations in the range of 0.020 nM to 100 μM. Chinese Hamster Ovary cells (CHO) overexpressing human FPR1 or human FPR2 receptors were cultured in F-12 (Ham's) medium supplemented with 10% qualified FBS, 250 μg/mL zeocin and 300 μg/mL hygromycin (Life Technologies). Reactions were initiated by adding 2,000 human FPR2 cells per well or 4,000 human FPR1 cells per well in Dulbecco's PBS (with calcium and magnesium) (Life Technologies) supplemented with 0.1% BSA (Perkin-Elmer). The reaction mixtures were incubated for 30 min at rt. The level of intracellular cAMP was determined using the HTRF HiRange cAMP assay reagent kit (Cisbio) according to manufacturer's instruction. Solutions of cryptate conjugated anti-cAMP and d2 flurorophore-labeled cAMP were made in a supplied lysis buffer separately. Upon completion of the reaction, the cells were lysed with equal volume of the d2-cAMP solution and anti-cAMP solution. […] The potency and activity of a compound to inhibit cAMP production was then determined by fitting to a 4-parametric logistic equation from a plot of cAMP level versus compound concentrations.

human FPR1 = biological target: T2, human FPR1 (Homo sapiens, UniProt P21462); assay: FPR1 cyclic adenosine monophosphate (cAMP) assay; assay type: cell-based; settings: CHO cells overexpressing human FPR1; forskolin 10 μM; inhibition of cAMP production; HTRF; read-out: hFPR1 cAMP2 EC50
T2 sequence (P21462 1-350): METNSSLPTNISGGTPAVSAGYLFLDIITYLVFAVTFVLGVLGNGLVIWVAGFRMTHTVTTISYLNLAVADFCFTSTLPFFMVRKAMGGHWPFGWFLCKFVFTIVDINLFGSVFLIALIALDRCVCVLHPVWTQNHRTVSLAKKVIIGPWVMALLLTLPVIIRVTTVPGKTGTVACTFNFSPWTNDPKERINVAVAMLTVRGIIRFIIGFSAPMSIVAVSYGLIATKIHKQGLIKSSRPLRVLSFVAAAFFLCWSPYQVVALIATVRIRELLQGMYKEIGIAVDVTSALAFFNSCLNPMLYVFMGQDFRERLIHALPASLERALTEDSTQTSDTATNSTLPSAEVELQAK
Description: as §1, §2

SMILES	EC50 (human FPR2) [nM]	EC50 (human FPR1) [nM]
COc1cc(F)c(-c2c(NC(=O)c3ccc(OC(F)F)cc3)c(=O)n(-c3cccc(Cl)c3Cl)n2C)c(F)c1 [Example 34, N-[2-(2,3-dichlorophenyl)-5-(2,6-difluoro-4-methoxyphenyl)-1-methyl-3-oxo-2,3-dihydro-1H-pyrazol-4-yl]-4-(difluoromethoxy)benzamide]	4	1900
COc1cc(F)c(-c2c(NC(=O)c3ccc(OC(F)(F)F)cc3)c(=O)n(-c3cccc(Cl)c3Cl)n2C)c(F)c1 [Example 35, N-[2-(2,3-dichlorophenyl)-5-(2,6-difluoro-4-methoxyphenyl)-1-methyl-3-oxo-2,3-dihydro-1H-pyrazol-4-yl]-4-(trifluoromethoxy)benzamide]	6	1700
COc1cc(F)c(-c2c(NC(=O)c3ccc(Cl)cc3)c(=O)n(-c3ccc(Cl)cc3)n2C)c(F)c1 [Example 36, 4-chloro-N-[2-(4-chlorophenyl)-5-(2,6-difluoro-4-methoxyphenyl)-1-methyl-3-oxo-2,3-dihydro-1H-pyrazol-4-yl]benzamide]	9	270
COc1cc(F)c(-c2c(NC(=O)c3ccc(OC(F)F)cc3)c(=O)n(-c3cccc(Cl)c3C)n2C)c(F)c1 [Example 37, N-[2-(3-chloro-2-methylphenyl)-5-(2,6-difluoro-4-methoxyphenyl)-1-methyl-3-oxo-2,3-dihydro-1H-pyrazol-4-yl]-4-(difluoromethoxy)benzamide]	19	> 10000
COc1cc(F)c(-c2c(NC(=O)c3ccc(OC(F)F)cc3)c(=O)n(-c3cccc(Cl)n3)n2C)c(F)c1 [Example 39, N-[2-(6-chloropyridin-2-yl)-5-(2,6-difluoro-4-methoxyphenyl)-1-methyl-3-oxo-2,3-dihydro-1H-pyrazol-4-yl]-4-(difluoromethoxy)benzamide]	14	3000
COc1cc(F)c(-c2c(NC(=O)c3ccc(OC(F)(F)F)cc3)c(=O)n(-c3ncccc3Cl)n2C)c(F)c1 [Example 41, N-[2-(3-chloropyridin-2-yl)-5-(2,6-difluoro-4-methoxyphenyl)-1-methyl-3-oxo-2,3-dihydro-1H-pyrazol-4-yl]-4-(trifluoromethoxy)benzamide]	7	2100
COc1cc(F)c(-c2c(NC(=O)c3ccc(Cl)cc3)c(=O)n(-c3ccc(Cl)cn3)n2C)c(F)c1 [Example 43, 4-chloro-N-[2-(5-chloropyridin-2-yl)-5-(2,6-difluoro-4-methoxyphenyl)-1-methyl-3-oxo-2,3-dihydro-1H-pyrazol-4-yl]benzamide]	41	> 10000
COc1cc(F)c(-c2c(NC(=O)c3ccc(OC(F)F)cc3)c(=O)n(-c3ccccn3)n2C)c(F)c1 [Example 44, N-[5-(2,6-difluoro-4-methoxyphenyl)-1-methyl-3-oxo-2-(pyridin-2-yl)-2,3-dihydro-1H-pyrazol-4-yl]-4-(difluoromethoxy)benzamide]	16	> 10000
COc1cc(F)c(-c2c(NC(=O)c3ccc(OC(F)F)cc3)c(=O)n(-c3cccc(C4CC4)n3)n2C)c(F)c1 [Example 45, N-[2-(6-cyclopropylpyridin-2-yl)-5-(2,6-difluoro-4-methoxyphenyl)-1-methyl-3-oxo-2,3-dihydro-1H-pyrazol-4-yl]-4-(difluoromethoxy)benzamide]	6	2800
COc1cc(F)c(-c2c(NC(=O)c3ccc(OC(F)F)cc3)c(=O)n(-c3cccc(C)n3)n2C)c(F)c1 [Example 46, N-[5-(2,6-difluoro-4-methoxyphenyl)-1-methyl-2-(6-methylpyridin-2-yl)-3-oxo-2,3-dihydro-1H-pyrazol-4-yl]-4-(difluoromethoxy)benzamide]	22	> 10000
COc1cc(F)c(-c2c(NC(=O)c3ccc(OC(F)F)cc3)c(=O)n(-c3ccc(C4CC4)cn3)n2C)c(F)c1 [Example 47, N-[2-(5-cyclopropylpyridin-2-yl)-5-(2,6-difluoro-4-methoxyphenyl)-1-methyl-3-oxo-2,3-dihydro-1H-pyrazol-4-yl]-4-(difluoromethoxy)benzamide]	6	460
COc1cc(F)c(-c2c(NC(=O)c3ccc(Cl)cc3)c(=O)n(-c3ccc(C)cn3)n2C)c(F)c1 [Example 48, 4-chloro-N-[5-(2,6-difluoro-4-methoxyphenyl)-1-methyl-2-(5-methylpyridin-2-yl)-3-oxo-2,3-dihydro-1H-pyrazol-4-yl]benzamide]	43	> 10000
COc1cc(F)c(-c2c(NC(=O)c3ccc(OC(F)F)cc3)c(=O)n(-c3ccc(C)cn3)n2C)c(F)c1 [Example 49, N-[5-(2,6-difluoro-4-methoxyphenyl)-1-methyl-2-(5-methylpyridin-2-yl)-3-oxo-2,3-dihydro-1H-pyrazol-4-yl]-4-(difluoromethoxy)benzamide]	55	6800
COc1cc(F)c(-c2c(NC(=O)c3ccc(OC(F)(F)F)cc3)c(=O)n(-c3ccc(C)cn3)n2C)c(F)c1 [Example 50, N-[5-(2,6-difluoro-4-methoxyphenyl)-1-methyl-2-(5-methylpyridin-2-yl)-3-oxo-2,3-dihydro-1H-pyrazol-4-yl]-4-(trifluoromethoxy)benzamide]	18	1300
COc1cc(F)c(-c2c(NC(=O)c3ccc(OC(F)F)cc3)c(=O)n(-c3ccc(-c4ccccc4)cn3)n2C)c(F)c1 [Example 51, N-[5-(2,6-difluoro-4-methoxyphenyl)-1-methyl-3-oxo-2-(5-phenylpyridin-2-yl)-2,3-dihydro-1H-pyrazol-4-yl]-4-(difluoromethoxy)benzamide]	18	1100
COc1cc(F)c(-c2c(NC(=O)c3ccc(OC(F)(F)F)cc3)c(=O)n(-c3ccc(C4CC4)cn3)n2C)c(F)c1 [Example 52, N-[2-(5-cyclopropylpyridin-2-yl)-5-(2,6-difluoro-4-methoxyphenyl)-1-methyl-3-oxo-2,3-dihydro-1H-pyrazol-4-yl]-4-(trifluoromethoxy)benzamide]	9	190
COc1cc(F)c(-c2c(NC(=O)c3ccc(C4CC4)cc3)c(=O)n(-c3ccc(C4CC4)cn3)n2C)c(F)c1 [Example 53, 4-cyclopropyl-N-[2-(5-cyclopropylpyridin-2-yl)-5-(2,6-difluoro-4-methoxyphenyl)-1-methyl-3-oxo-2,3-dihydro-1H-pyrazol-4-yl]benzamide]	59	610
COc1cc(F)c(-c2c(NC(=O)c3ccc(OC(F)F)cc3)c(=O)n(-c3ccc(C#N)cn3)n2C)c(F)c1 [Example 54, N-[2-(5-cyanopyridin-2-yl)-5-(2,6-difluoro-4-methoxyphenyl)-1-methyl-3-oxo-2,3-dihydro-1H-pyrazol-4-yl]-4-(difluoromethoxy)benzamide]	19	3300
COc1cc(F)c(-c2c(NC(=O)c3ccc(OC(F)F)cc3)c(=O)n(-c3ncccc3C#N)n2C)c(F)c1 [Example 55, N-[2-(3-cyanopyridin-2-yl)-5-(2,6-difluoro-4-methoxyphenyl)-1-methyl-3-oxo-2,3-dihydro-1H-pyrazol-4-yl]-4-(difluoromethoxy)benzamide]	8	9600

Reference: patent US12577206B2 (BRISTOL-MYERS SQUIBB COMPANY, priority 2020, dated 2026)
